Here are results for two molecules from PMC12635268, “Novel antimicrobial peptides and peptide-microbiome crosstalk in Appalachian salamander skin” (NPJ Biofilms and Microbiomes, 2025).

One data set concerns A. baumannii ATCC 17978. Kind of data set: microbe, parasite or virus in culture. As to conditions: for Bacterial MIC: A. baumannii 17978; for MIC: Acinetobacter baumannii. The gist of the method:
(§1)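 Each strain was exposed in duplicate to two-fold peptide dilutions (0.25 to 128 μg/mL) in cation-adjusted Mueller-Hinton broth at 1 × 10⁵ CFU/mL. After 20 h at 37 °C without shaking, the lowest concentration lacking visible growth was recorded following CLSI.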

The next data set concerns E. cloacae ATCC 13047. Kind of data set: microbe, parasite or virus in culture. The note with it: for Bacterial MIC: E. cloacae 13047; for MIC: Enterobacter cloacae. In outline:
as §1

Another data set concerns E. cloacae ATCC 35549. In words: microbe, parasite or virus in culture. As to conditions: for Bacterial MIC: E. cloacae 35549; for MIC: Enterobacter cloacae. In outline: as §1
Another data set has as its system E. coli ATCC 43888. Kind of data set: microbe, parasite or virus in culture. The note with it: for Bacterial MIC: E. coli 43888; for MIC: Escherichia coli. The gist of the method: as §1
The test system of data set [1] is Batrachochytrium dendrobatidis Bd-GPL strain JEL404. As to conditions: slope of growth, positive = inhibition, negative = no inhibition.
A further data set deals with HepG2 (ATCC HB-8065). Kind of data set: HepG2 cytotoxicity, MTT assay. As to conditions: at concentrations up to 5.25 μg/mL (5.25 to 0.15 µg/mL), 48 h. The data set is classed as cell-based, human. The procedure: For any inhibitory peptides, HepG2 (ATCC HB-8065) cytotoxicity was tested to determine half-maximal inhibitory concentration (IC50) of human cells. The procedure involved seeding 96-well plates with 2.5 × 10^4 cells per well in 170 µL of culture medium, followed by an overnight incubation at 37 °C in a 5% CO₂ atmosphere. Subsequently, cells were exposed to varying concentrations of the test peptides, ranging from 5.25 µg/mL to 0.15 µg/mL, and incubated for an additional 48 h. Cell viability was assessed using the MTT assay, as previously described. Absorbance measurements were obtained using a PerkinElmer EnSight plate reader. The IC50 values for each compound were calculated by fitting the data to a sigmoidal dose-response curve with variable slope using GraphPad Prism software. Each assay plate included three controls: (a) background control—wells without cells and without drug; (b) positive control—wells with cells and 10 µg/mL of a known toxic compound; and (c) DMSO control—wells with cells and 0.2% DMSO, the highest concentration of DMSO used in the assay, which is non-toxic to the cells.
In general terms: Formazan colour is commonly taken as a measure of viable cells.

The subject of the next data set is K. pneumoniae 4640. As to conditions: K. pneumoniae 4640.
Details of data set [2]: method as in Biomatik (vendor). As to conditions: 1.0 mg peptide in 1.0 ml solvent; peptides synthesized by Biomatik; ref Biomatik (vendor); cited from earlier work.
[3] abbreviates: CAMHB, 1 × 10⁵ CFU/mL, 0.25 to 128 μg/mL, 37 °C 20 h, duplicate, read visually (CLSI).

Values after ≈ are worked out from the molar mass of the structure shown. Read-outs that look alike come from different tables or passages of the source. Where only a bound is given, the exact number is not on record here.

Regarding `C[C@H]1COc2c(N3CCN(C)CC3)c(F)cc3c(=O)c(C(=O)O)cn1c23` [Levofloxacin, reference compound], the “Bacterial MIC” value with A. baumannii ATCC 17978 (Historical run 15NOV23), with A. baumannii ATCC 17978 (Historical run 19APRIL23), in the data set on A. baumannii ATCC 17978 (Historical run 22NOV23), in the data set on A. baumannii ATCC 17978 (Week 2 (12/14/2023)), with E. cloacae ATCC 13047 (Historical run 15NOV23) and with E. cloacae ATCC 13047 (Historical run 19APRIL23) was “<= 0.250 µg/mL” throughout. In addition, the “Bacterial MIC” value in the data set with E. cloacae ATCC 13047 (Historical run 22NOV23), with E. cloacae ATCC 13047 (Week 2 (12/14/2023)), with E. cloacae ATCC 35549 (Historical run 15NOV23), in the data set with E. cloacae ATCC 35549 (Historical run 19APRIL23), in the data set on E. cloacae ATCC 35549 (Historical run 22NOV23) and in the data set on E. cloacae ATCC 35549 (Week 2 (12/14/2023)) was “<= 0.250 µg/mL” in each case. The “Bacterial MIC” value in the data set on E. coli ATCC 43888 (Historical run 15NOV23), with E. coli ATCC 43888 (Historical run 19APRIL23), in the data set on E. coli ATCC 43888 (Historical run 22NOV23) and in the data set on E. coli ATCC 43888 (Week 2 (12/14/2023)) was “<= 0.250 µg/mL” in each case. Also, the MIC was 0.25 µg/mL (≈ 0.692 µM) in the data set with A. baumannii ATCC 17978 (ATCC17978, 20 h); at most 0.25 µg/mL in the data set with A. baumannii ATCC 17978 (ATCC17978, read-out: Bacterial MIC); 0.25 µg/mL (≈ 0.692 µM) in the data set with E. cloacae ATCC 13047 (ATCC13047, 20 h); at most 0.25 µg/mL with E. cloacae ATCC 13047 (ATCC13047, read-out: Bacterial MIC); 0.25 µg/mL (≈ 0.692 µM) against E. cloacae ATCC 35549 (ATCC35549, 20 h); at most 0.25 µg/mL with E. cloacae ATCC 35549 (ATCC35549, read-out: Bacterial MIC). Also, the MIC in the data set on E. coli ATCC 43888 (ATCC43888, 20 h) is 0.25 µg/mL (≈ 0.692 µM); in the data set on E. coli ATCC 43888 (ATCC43888, read-out: Bacterial MIC), at most 0.25 µg/mL.
As to `CC[C@H](C)[C@H](NC(=O)[C@H](CCCCN)NC(=O)[C@H](CCC(=O)O)NC(=O)[C@H](CCCCN)NC(=O)[C@H](CO)NC(=O)[C@H](CCCCN)NC(=O)[C@H](CCCNC(=N)N)NC(=O)[C@H](Cc1ccccc1)NC(=O)[C@H](Cc1ccccc1)NC(=O)[C@H](CC(=O)O)NC(=O)CNC(=O)[C@H](CC(C)C)NC(=O)[C@@H](N)CC(C)C)C(=O)NCC(=O)N[C@@H](CCCCN)C(=O)N[C@@H](CCC(=O)O)C(=O)N[C@@H](Cc1ccccc1)C(=O)N[C@@H](CCCCN)C(=O)N[C@@H](CCCNC(=N)N)C(=O)N[C@H](C(=O)N[C@H](C(=O)N[C@@H](CCC(N)=O)C(=O)N[C@@H](CCCNC(=N)N)C(=O)N[C@H](C(=O)N[C@@H](CCCCN)C(=O)N[C@@H](CC(=O)O)C(=O)N[C@@H](Cc1ccccc1)C(=O)N[C@@H](CC(C)C)C(=O)N[C@@H](CCCNC(=N)N)C(=O)N[C@@H](CC(N)=O)C(=O)N[C@@H](CC(C)C)C(=O)N[C@H](C(=O)N1CCC[C@H]1C(=O)N[C@@H](CCCNC(=N)N)C(=O)N[C@H](C(=O)N[C@@H](CCC(=O)O)C(=O)N[C@@H](CO)C(=O)O)[C@@H](C)O)C(C)C)[C@@H](C)CC)C(C)C)[C@@H](C)CC` [LL-37, reference compound], the “Bd inhibition score (percent inhibition), mean” value is recorded as -44.2834% in [1] (synthesized peptide 15.625 μg/mL); -68.3967% in data set [1] (synthesized peptide 31.25 μg/mL); -39.8112% in data set [1] (synthesized peptide 62.5 μg/mL); -55.6571% in [1] (synthesized peptide 125 μg/mL); -81.8611% in [1] (synthesized peptide 250 μg/mL); -318.384% in data set [1] (synthesized peptide 500 μg/mL). In addition, the “HepG2 cytotoxicity in words” value with HepG2 (ATCC HB-8065) is on record as “No HepG2 cytotox was observed”. Also, the MIC against K. pneumoniae 4640 (setting [3]) is 64 µg/mL (≈ 14.2 µM); in the data set with A. baumannii 5075 (setting [3]), 4 µg/mL (≈ 0.89 µM). For the same molecule, the “Bacterial MIC” value is listed as 64 µg/mL in the data set on K. pneumoniae 4640 (Week 1 (12/6/2023)), 64 µg/mL with K. pneumoniae 4640 (Week 2 (12/14/2023)), 4 µg/mL in the data set with A. baumannii 5075 (Week 1 (12/6/2023)) and 4 µg/mL with A. baumannii 5075 (Week 2 (12/14/2023)). The “Suggest solvent (solubility)” value in [2] was 1.0mg peptide soluble in 1.0ml (H2O:Acetonitrile=3:1).
